Among the data in a melting point compilation (Tetko et al.; mined from patent text by program, amines drawn as free bases though some values may be those of a salt) are melting point values, retold here.

As usually defined, the melting point is the temperature, or range, at which the solid turns liquid.

`CC(=O)N(C)N(C)c1ccnc2c(NC(=O)c3c(Cl)cccc3Cl)cccc12` came in with a melting point of 243 to 244 °C.
Next, `CCNc1nnc2ccc(-c3cccc(N(C)C(=O)CC)c3)nn12`: 198 to 199 °C.
To `CCn1nc(C(C)(C)C)cc1C(=O)Nc1ccc(F)c(C(=O)N(C)C)c1` belongs 93 to 95 °C; to `CCOP(=O)(/C=C/C=C/c1cn(-c2ccccc2)nc1OCc1ccc(OCc2nc(-c3ccco3)oc2C)c(OC)c1)OCC`, 143 to 144 °C.
Compound `O=C1NCc2c1cc1ccc3c(c1c2-c1ccncc1)OCO3` gave a melting point of 316 to 319 °C.
To `Cc1nc(NC(=O)c2cnn3c(C(F)F)cc(-c4ccc(C(F)(F)F)cc4)nc23)sc1S(=O)(=O)NCCN(C)C` belongs 217 °C; to `Cc1nccn1-c1cccc(C2=Nc3ccc(-c4ccccc4F)cc3NC(=O)C2)c1`, 187 °C; to `CN(C)c1nc2c(c(N3CCN(Cc4ccccc4)CC3)n1)SCCC2`, 106 to 108 °C.
To `CCOC(=O)c1cnc2nn(C)cc2c1N1CCCCC1` belongs 185 to 188 °C; to `CCOC(=O)C1=C(C)N(C)C(C)=C(C(=O)OC(C)C)C1c1cccc([N+](=O)[O-])c1` (centres undefined), 100 to 101 °C.
In turn, `CNC(=C[N+](=O)[O-])NCCSCc1cc(OC)ccn1` had a melting point of 107 to 108 °C.
To `Cc1cc2c(c(C)c1[N+](=O)[O-])OCO2` belongs 75 to 76 °C.
Next, `CC(=O)C=Cc1ccc(Br)cc1`: 82 to 84 °C; `CCOCc1nc2c(N)nc3cc(N4CCCCC4)ccc3c2n1CCCOC(C)C`: 182 to 184 °C; `CC(C)CCn1c(=O)c2c(N3CCN(C)CC3)cc(Cl)cc2n(Cc2ccccc2)c1=O`: 62 to 68 °C.
`COc1ccc(C(=O)c2ccc(OCCc3nc(-c4ccccc4)oc3C)cc2)c(OC(C)(C)C(=O)O)c1` gave a melting point of 81 to 82 °C.
As for `O=C(O)COc1cc2c(c(Cl)c1Cl)C(=O)c1ccccc1-2`, the melting point lay within 305 to 306 °C.
`Cc1ccccc1C1CC(=O)c2c(C)n[nH]c2C1` (centres undefined) gave a melting point of 205 to 207 °C.
Regarding `Cc1c(-c2ncc([N+](=O)[O-])n2C)cnn1-c1ccc(Cl)cc1`, the melting point was determined as 164 °C.
As for `Oc1csc(Cc2n[nH]c3ccccc23)c1`, the melting point lay in the range of 189 to 190 °C.
Next, `COc1cc2c(cc1C)C1(CO2)C(=O)N(CC2CCCCO2)c2ccccc21` (centres undefined): 180 to 182 °C; `OC1CSc2nc(SCc3ccccc3)nn21` (centres undefined): 136 to 138 °C; `CC(C)(C)OC(=O)C(CCCCNC(=O)OCc1ccccc1)NC(=O)C(F)(F)F` (centres undefined): 77 to 79 °C.
To `CCOC(=O)c1ccc(-c2ccc(-c3ccccc3OC)c(-c3ccc4c(c3)C(C)(C)CCC4(C)C)c2)cc1` belongs 133 to 136 °C; to `CCCCCCNC1=CC(=O)c2c(OC)ccc(OC)c2C1=O`, 83 to 84 °C.
The compound `CC(C)(C)C(=O)C(Br)Cc1ccc(Cl)cc1` (centres undefined) yielded a melting point of 48 to 50 °C.
In the case of `O=C1N(N2CCCCC2)c2ccccc2C1(Cc1ccncc1)c1ccccc1` (centres undefined), the melting point lay within 128 to 131 °C.
Next, `Cc1cc(SC#N)c(C(C)C)cc1O`: 72 to 75 °C.
`C#Cc1c(C#N)nn(-c2c(Cl)cc(C(F)(F)F)cc2Cl)c1N`: the melting point is 215 to 216 °C.
`O=C(CCc1ccccc1)N1CCN(C(=O)C(Cc2ccc(O)cc2)NS(=O)(=O)c2cccc3cnccc23)CC1` (centres undefined) registered a melting point of 172 to 178 °C.
For `CCCCCC(O)CCCN(CCCCCCC(=O)O)C(N)=O` (centres undefined), the melting point lay in the range of 75 to 76 °C.
To `CCCC(=O)C1=C(O)CC(c2cccc3c2OCO3)CC1=O` (centres undefined) belongs 81 to 82 °C; to `Nc1ncc(-c2cccc3ccccc23)c(N)n1`, 171 to 173 °C.
`O=C(O)c1cn(C2CC2)c2c(F)c(N3CCCC(n4cncn4)C3)c(F)cc2c1=O` (centres undefined) had a melting point of 217 °C.
Next, `c1ccc(CNCC2CCn3c(nc4ccccc43)S2)cc1` (centres undefined): 155 to 156 °C; `CCCCCCCCC(=O)Nc1ccn(C2OC(CO)C(O)C2O)c(=O)n1` (centres undefined): 150 to 152 °C.
With `O=C(NCCCO)c1cc(Br)c(Br)[nH]1`, the melting point is 160 to 162 °C.
`CN1C(=O)C2C3CCC(C3)C2(c2ccc3c(c2)CCCC3)C1=O` (centres undefined) returned a melting point of 108 to 114 °C.
To `O=S1NC(Cc2cc3ccccc3s2)=NO1` (centres undefined) belongs 127 to 129 °C; to `CO/C=C(/C(=O)OC)n1cccc1`, 88 to 89 °C.
Next, `CCCc1nc2c(N)nc3cc(Oc4ccc(C#N)cc4)ccc3c2n1CC(C)C`: 223 to 225 °C; `O=C(O)c1ccccc1Sc1c(O)c2c(Cl)cc(Cl)cc2[nH]c1=O`: above 300 °C; `CCOC(=O)c1cn(Cc2ccc(Oc3ccccc3)cc2)nc1OCc1nc(-c2ccccc2)oc1C`: 96 to 97 °C.
`COc1ccc2nc(COc3cccc(C(=O)Nc4cc(CCCS(=O)(=O)c5ccc(Cl)cc5)ccc4OCC(=O)O)c3)sc2c1`: the melting point lay in the range of 187 to 189 °C.
Compound `C[C@H](CSC(=O)C1CCCCC1)C(=O)N1CSC[C@H]1C(=O)O` showed a melting point of 79.5 to 80 °C.
Next, `CCOC(=O)C(Cc1cccc2cccnc12)(NC=O)C(=O)OCC`: 120 to 122 °C; `CCCNC(=O)Nc1ccc(N(C)C)cc1C(=O)NCC1CCN(C(c2ccccc2)c2ccccc2)CC1`: 199 to 201 °C.
Next, `Cc1c(Cl)cc(C(=O)C=[N+]=[N-])cc1S(N)(=O)=O`: 174 to 176 °C.
Next, `COC(=O)c1c[nH]c2ccc(N)cc12`: 217 to 219 °C; `CCOC(=O)c1cnc2nc(S(=O)(=O)Cl)nn2c1C`: 65 to 69 °C; `O=C1c2c(-c3ccccc3)cc(CO)nc2OCCN1Cc1cc(C(F)(F)F)cc(C(F)(F)F)c1`: 199 to 201 °C.
For the compound `CCCc1noc(-c2ncn3c2[C@@H]2CCCN2C(=O)c2c(Cl)cccc2-3)n1`, the melting point lay within 176 to 178 °C.
Next, `Cc1cc(-n2nc(C#N)cc2-c2ccc(S(C)(=O)=O)cc2)ccc1Cl`: 163 to 164 °C.
Next, `COC(=O)c1cscc1NC(=O)C(F)Cl` (centres undefined): 51 to 54 °C; `CC1(C)C(=O)Nc2cc3[nH]c(-c4ccnnc4)nc3cc21`: above 360 °C.
Consider `O=c1nc(-c2ccc3c(c2)OCCO3)c2ccc3c(c2[nH]1)OCO3`, for which the melting point is above 300 °C.
`CC(C)OCCCNC(=O)CN1C(=O)C2(COc3cc4c(cc32)CCO4)c2ccccc21` (centres undefined) registered a melting point of 149 to 151 °C.
Next, `Cc1cc2c(cc1N1CC(C)C(C)C1)OC(=O)C2C` (centres undefined): 104 to 105 °C.
Next, `CCOC(=O)c1c(CN2CCOCC2)nc2cc(OC)c(OC)cc2c1-c1ccc(OC)cc1`: 165 to 166 °C.
With `Cc1cc2c(cc1C#N)OCC(C)(C)C=C2c1ccccn1`, the melting point is 136 °C.
As for `O=C(O)c1cccc(OC(F)(F)C(F)Cl)c1` (centres undefined), the melting point was 79 to 85 °C.
Next, `COc1ccc2c(c1OCc1ccccc1)CCN(C=O)C2`: 118 °C; `O=C(Nc1ccccc1[N+](=O)[O-])c1ccc(-n2nc(C(F)(F)F)cc2C(F)(F)F)cc1`: 173 to 175 °C.
Next, `O=C(c1ccccc1)c1cc(-c2ccncc2)sc1-c1ccncc1`: 168 to 170 °C.
For the compound `Oc1cccc([C@H]2CCCC[C@@H]2NCCc2ccccc2)c1` (racemic), the melting point was in the range of 164 to 165 °C.
Next, `Cc1ccc(Oc2cnc(C#N)c(C#N)n2)cc1`: 126 to 127 °C; `COc1cc(Br)nc2[nH]cc(-c3ccnc(N)n3)c12`: above 210 °C; `Cc1ccc(-c2ccc3c(c2)C=C(C(=O)Nc2ccc(CN4CCN(C(c5ccccc5)c5ccccc5)CC4)cc2)CC3)cc1`: 217 to 218 °C.
The compound `O=S(=O)(NCCN1CCOCC1)c1ccc(-c2n[nH]c3c2Cc2ccccc2-3)cc1` gave a melting point of 218 to 220 °C.
`CCCOc1n[nH]c(=O)n1C1CC1` returned a melting point of 105 to 106 °C.
The compound `C=C(CC1(C)C(=O)CCC1=O)C1=CCCc2cc(OC)ccc21` yielded a melting point of 81 to 82 °C.
Consider `Cc1noc(NS(=O)(=O)c2ccccc2-c2ccsc2)c1C`, for which the melting point lay within 147 to 148 °C.
The compound `C=CCc1cn(C2OC(CO)C(O)C2O)c(=O)nc1N` (centres undefined) yielded a melting point of 176 °C.
To `COc1cc2c(cc1O)CN(C(C)=O)CC2` belongs 142 to 144 °C; to `Fc1ccc(C(OP2OCCO2)(c2ccc(F)cc2)c2ccccc2F)cc1`, 163 to 164 °C; to `COc1ccccc1C(=O)N1CCN(CC2(C)Cc3c(C)c(N)c(C)c(C)c3O2)CC1` (centres undefined), 128 to 131 °C.
The compound `Fc1cc2c(cc1F)C(n1cc[nH]c1=S)CC2` (centres undefined) displayed a melting point of 183 to 187 °C.
`C[Si](C)(C)C(CN)CC(=O)O` (centres undefined): the melting point fell in the range of 199 to 201 °C.
In turn, `CCCCOc1ccc(COC(=O)C(=O)OCc2ccc(OCCCC)cc2)cc1` came in with a melting point of 114 °C.
To `CN(C)C(=O)c1nc2ccccc2n(Cc2ccccc2)c1=O` belongs 154 to 155 °C; to `c1ccc(-c2ccc(CCCN3CCN(c4ccccc4)CC3)o2)cc1`, 95 °C; to `Cn1cc(CS(C)=O)c(=O)c2ccc(Cl)cc21` (centres undefined), 180 to 181 °C.
To `CCOC(=O)c1cccc2c1CCCC2C(N)=O` (centres undefined) belongs 160 to 162 °C; to `CCOCc1nc2c(N)nc3cc(OCCCN4CCCC4=O)ccc3c2n1CCCCNS(C)(=O)=O`, 157 °C; to `O=C(NC(CS)Cc1ccccc1)N1CCOCC1` (single isomer, unassigned; (+)), 84 °C.
To `COC(=O)c1cc(-c2ccccc2)c(=O)n2c1-c1cc(Cl)ccc1CC2` belongs 139 to 141 °C.
Turning to `COCC(=O)Nc1cccc(C2(c3ccncc3)N=C(N)N(C)C2=O)c1` (centres undefined), the melting point fell in the range of 92 to 93 °C.
To `Cc1cc(Cl)ccc1-c1cccc2c1OC(CN)CN2C` (centres undefined) belongs 109 to 112 °C; to `O=C(c1ccccc1)N1CC(=O)N(CCc2ccccc2)C(=O)C1`, 102 °C.
